In patent publication US20250034151A1, “WEE1 INHIBITOR, PREPARATION THEREFOR, AND USE THEREOF” (JIANGSU TASLY DIYI PHARMACEUTICAL CO., LTD., priority 2022, published 2025):

Tests used:
CYP3A4 = CYP3A4 (Homo sapiens, UniProt P08684); assay: in vitro; conditions: CYP3A4 enzyme, pH 7.4, probe BOMCC (0.01 mM)
CYP2C8 = molecular target: T1, CYP2C8 (Homo sapiens, UniProt P10632); assay: in vitro; conditions: CYP2C8 enzyme, pH 7.4, probe DBOMF (0.001 mM)
T1 sequence (P10632 1-490): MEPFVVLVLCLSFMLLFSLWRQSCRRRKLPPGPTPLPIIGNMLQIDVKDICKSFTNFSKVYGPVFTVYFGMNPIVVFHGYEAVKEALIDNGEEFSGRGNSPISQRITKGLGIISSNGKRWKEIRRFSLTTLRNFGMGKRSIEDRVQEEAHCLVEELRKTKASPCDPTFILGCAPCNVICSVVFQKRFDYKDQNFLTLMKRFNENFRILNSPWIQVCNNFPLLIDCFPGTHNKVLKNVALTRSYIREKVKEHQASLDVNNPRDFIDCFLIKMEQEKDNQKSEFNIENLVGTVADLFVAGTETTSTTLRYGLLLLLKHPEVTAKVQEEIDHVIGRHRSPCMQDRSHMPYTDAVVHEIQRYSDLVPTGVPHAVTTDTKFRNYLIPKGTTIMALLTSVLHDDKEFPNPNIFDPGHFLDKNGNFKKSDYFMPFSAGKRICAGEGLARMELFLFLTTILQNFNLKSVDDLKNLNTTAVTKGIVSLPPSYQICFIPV

CYP2D6 = CYP2D6 (Homo sapiens, UniProt P10635); assay: in vitro; conditions: CYP2D6 enzyme, pH 7.4, probe EOMCC (0.01 mM)
Sequence of CYP2D6 (P10635 whole entry, species assumed): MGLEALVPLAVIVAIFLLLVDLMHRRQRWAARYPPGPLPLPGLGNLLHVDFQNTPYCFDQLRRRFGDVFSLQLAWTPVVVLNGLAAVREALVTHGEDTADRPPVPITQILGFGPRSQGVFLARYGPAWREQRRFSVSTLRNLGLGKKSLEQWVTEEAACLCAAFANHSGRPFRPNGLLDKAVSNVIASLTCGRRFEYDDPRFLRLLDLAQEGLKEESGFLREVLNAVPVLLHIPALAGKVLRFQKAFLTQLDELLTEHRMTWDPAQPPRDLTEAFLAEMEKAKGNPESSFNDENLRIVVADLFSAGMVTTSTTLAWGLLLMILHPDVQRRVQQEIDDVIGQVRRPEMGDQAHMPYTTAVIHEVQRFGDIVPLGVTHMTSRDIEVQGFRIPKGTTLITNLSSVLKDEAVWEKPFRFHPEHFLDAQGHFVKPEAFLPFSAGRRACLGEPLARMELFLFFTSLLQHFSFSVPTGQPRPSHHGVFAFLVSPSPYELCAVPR

CYP2C19 = CYP2C19 (Homo sapiens, UniProt P33261); assay: in vitro; conditions: CYP2C19 enzyme, pH 7.4, probe EOMCC (0.01 mM)
Sequence of CYP2C19 (P33261 whole entry, species assumed, canonical isoform): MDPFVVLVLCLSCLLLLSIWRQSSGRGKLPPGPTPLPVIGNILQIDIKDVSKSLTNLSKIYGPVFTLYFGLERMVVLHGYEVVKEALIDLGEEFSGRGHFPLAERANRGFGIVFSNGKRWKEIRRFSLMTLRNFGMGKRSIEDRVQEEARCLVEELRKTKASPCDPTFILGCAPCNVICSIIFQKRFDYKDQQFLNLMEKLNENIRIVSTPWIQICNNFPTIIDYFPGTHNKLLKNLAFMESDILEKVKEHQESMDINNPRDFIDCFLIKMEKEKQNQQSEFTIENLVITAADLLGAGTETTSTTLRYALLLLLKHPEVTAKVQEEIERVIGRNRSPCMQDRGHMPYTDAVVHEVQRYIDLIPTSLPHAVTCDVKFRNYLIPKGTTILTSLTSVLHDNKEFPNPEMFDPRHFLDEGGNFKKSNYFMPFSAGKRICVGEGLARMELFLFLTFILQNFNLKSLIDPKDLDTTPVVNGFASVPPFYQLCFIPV

CYP2B6 = molecular target: T2, CYP2B6 (Homo sapiens, UniProt P20813); assay: CYP450 isoform enzymatic inhibition, 2B6; format: in vitro ADME; conditions: CYP2B6 enzyme, pH 7.4, read-out: CYP inhibiton/% 2B6
T2 sequence (P20813 1-491): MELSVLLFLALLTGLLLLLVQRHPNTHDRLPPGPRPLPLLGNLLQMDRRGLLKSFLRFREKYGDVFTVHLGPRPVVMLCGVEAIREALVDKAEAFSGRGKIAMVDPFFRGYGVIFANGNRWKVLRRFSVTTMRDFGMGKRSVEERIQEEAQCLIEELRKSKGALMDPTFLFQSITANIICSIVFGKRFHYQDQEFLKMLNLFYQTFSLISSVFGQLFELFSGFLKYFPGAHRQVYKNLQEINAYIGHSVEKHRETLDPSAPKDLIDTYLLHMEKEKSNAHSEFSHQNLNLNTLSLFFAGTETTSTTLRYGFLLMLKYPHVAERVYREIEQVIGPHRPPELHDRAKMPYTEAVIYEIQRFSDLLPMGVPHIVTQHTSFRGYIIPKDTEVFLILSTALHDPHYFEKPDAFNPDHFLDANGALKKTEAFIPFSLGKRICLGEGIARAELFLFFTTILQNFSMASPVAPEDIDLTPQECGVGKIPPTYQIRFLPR

CYP2C9 = CYP2C9 (Homo sapiens, UniProt P11712); assay: in vitro; conditions: CYP2C9 enzyme, pH 7.4, probe BOMCC (0.01 mM)
Sequence of CYP2C9 (P11712 whole entry, species assumed): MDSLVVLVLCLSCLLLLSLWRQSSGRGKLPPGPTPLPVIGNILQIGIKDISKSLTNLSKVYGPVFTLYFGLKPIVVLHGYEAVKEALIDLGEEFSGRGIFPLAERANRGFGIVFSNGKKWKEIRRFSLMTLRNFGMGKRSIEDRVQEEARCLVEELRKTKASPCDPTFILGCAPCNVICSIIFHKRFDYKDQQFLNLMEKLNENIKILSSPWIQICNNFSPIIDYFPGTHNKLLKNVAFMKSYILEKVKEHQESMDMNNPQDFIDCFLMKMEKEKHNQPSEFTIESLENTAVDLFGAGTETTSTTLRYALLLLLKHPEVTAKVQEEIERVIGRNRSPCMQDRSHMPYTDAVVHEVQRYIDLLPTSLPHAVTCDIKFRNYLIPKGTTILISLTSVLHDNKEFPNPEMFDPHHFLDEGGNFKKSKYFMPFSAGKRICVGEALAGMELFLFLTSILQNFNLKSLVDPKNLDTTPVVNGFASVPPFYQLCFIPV

[1] = Liver microsomes in vitro stability (human); format: in vitro ADME; conditions: read-out: T1/2/min (H)
Experimental: (§1) 1. Preparation of Working Solution:
(§2) Microsomes were taken out from the −80° C. refrigerator, rapidly melted in a 37° C. water bath and placed on ice until ready to use. The test article was diluted with DMSO to prepare a 10 mM stock solution, and then diluted with acetonitrile to a 0.5 mM secondary stock solution. […] NADPH was diluted with Buffer C to a working solution of 6 mM for the starter solution. An acetonitrile solution containing an internal standard was prepared as the precipitant, and Verapamil-HCl was chosen as the internal standard at a concentration of 4 ng/ml.
(§3) 2. Experimental Procedure:
(§4) A round-bottom well plate was taken, noted as the reaction plate, and the prepared working solution for each compound was dispensed into the well plate according to the number of replicates and time points (0 h samples were also added to the reaction plate), 30 μL/well; the plate was incubated at 37° C. for 10 min. A separate plate with pointed bottom wells, noted as a precipitation plate, was added with 135 μL precipitant per well; 0 h samples were transferred to the plate after 10 min incubation and 15 μL of starter solution was added; the plate was placed on ice before centrifugation.
(§5) The diluted starter solution was added in sufficient quantity to the dispensing plate to facilitate the multichannel pipette aspiration operation.
(§6) The reaction was carried out on a warm incubation shaker and 15 μL of starter solution/sample is added to the plate using a multichannel pipette. The reaction was mixed with a slight shake to initiate the reaction, which was accurately timed and recorded using a timer. In general, samples with shorter reaction times are initiated late and vice versa early, allowing sufficient time for multiple plate manipulation to terminate the reaction. For example, as for the four experiments of 5, 15, 30, and 60 min, the 60 min experiment was started first, and the 5 min experiment was started later, so as to leave sufficient time for the 5 min group.
(§7) After the reaction time had elapsed, all the solution in the plate was aspirated using the multichannel pipette and added to the precipitation plate to terminate the reaction at that point in time. After all reactions had been terminated, the plates were shaken for ten minutes on a plate shaker at 600 rpm to precipitate the protein. The plate was centrifuged at 4° C. for 15 minutes at maximum rpm. 80 μL of supernatant was taken, 320 μL of pure water was added and mixed for LC-MS analysis.

[2] = Liver microsomes in vitro stability (mouse); format: in vitro ADME; conditions: read-out: T1/2/min
Experimental: as §1, §2, §3, §4, §5, §6, §7

Sequence of CYP3A4 (P08684 whole entry, species assumed): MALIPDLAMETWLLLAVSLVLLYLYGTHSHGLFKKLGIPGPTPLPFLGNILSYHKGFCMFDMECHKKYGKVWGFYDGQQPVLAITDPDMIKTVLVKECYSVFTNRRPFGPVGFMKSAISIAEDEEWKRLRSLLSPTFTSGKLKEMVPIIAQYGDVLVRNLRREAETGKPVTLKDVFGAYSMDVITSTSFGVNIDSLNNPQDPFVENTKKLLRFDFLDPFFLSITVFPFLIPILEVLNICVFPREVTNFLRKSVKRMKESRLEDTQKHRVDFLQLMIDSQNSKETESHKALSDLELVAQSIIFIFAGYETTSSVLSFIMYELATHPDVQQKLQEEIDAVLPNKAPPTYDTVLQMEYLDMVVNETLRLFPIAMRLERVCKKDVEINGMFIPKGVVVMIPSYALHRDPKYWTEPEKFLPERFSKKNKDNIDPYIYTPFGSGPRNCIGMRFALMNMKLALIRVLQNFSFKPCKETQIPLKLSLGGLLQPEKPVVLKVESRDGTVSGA

SMILES | inhibition at 30 min, 1 µM (CYP3A4) | inhibition at 30 min, 10 µM (CYP3A4) | inhibition at 30 min, 1 µM (CYP2C8) | inhibition at 30 min, 10 µM (CYP2C8) | inhibition at 30 min, 1 µM (CYP2D6) | inhibition at 30 min, 10 µM (CYP2D6) | inhibition at 30 min, 1 µM (CYP2C19) | inhibition at 30 min, 10 µM (CYP2C19) | inhibition at 30 min, 10 µM (CYP2B6) | inhibition at 30 min, 1 µM (CYP2C9) | inhibition at 30 min, 10 µM (CYP2C9) | half-life at 1 µM [1] | half-life at 1 µM [2]
C=CCn1c(=O)c2cnc(Nc3ccc(N4CCN(C)CC4)cc3)nc2n1-c1cccc(C(C)(C)O)n1 [AZD1775] | -14% | -32.9% | 7.1% | 17.3% | 3.4% | 1.5% | 25.4% | 71.9% | 17.4% | 15.4% | 6.4% |  | 
C=CCn1c(=O)c2cnc(Nc3ccc(N4CC5CC(C4)N5C)cc3)nc2n1-c1cccc(C(C)(C)O)n1 [Compound 27] |  |  |  |  |  |  |  |  |  |  |  | 1.75 h | 0.55 h
